Data on 6 molecules can be found in ChEMBL document CHEMBL3421582, “Quinofuracins A-E, produced by the fungus Staphylotrichum boninense PF1444, show p53-dependent growth suppression” (J Nat Prod, 2015).

SMILES strings stand for the structures. Activity calls are given as the source filed them. The calls are words filed in the database; no cut-off is given here.

The target of assay [1] is Cellular tumor antigen p53 (Homo sapiens) (UniProt P04637). Description: Induction of wild type p53-dependent growth suppression of human HCT116 cells. It is filed as cell-based. As to conditions: HCT-116.
For assay [2], the system named is Cellular tumor antigen p53 (Homo sapiens), P04637 [UNDEFINED MUTATION]. The experiment in a line: Induction of p53 mutant-dependent growth suppression of human MKN7 cells. Type of assay: cell-based. As to conditions: MKN-7.
Assay [3] has the same test system. The experiment in a line: Induction of p53 mutant-dependent growth suppression of human […] cells.
Assay [4] shares this test system. The experiment in a line: Induction of p53 mutant-dependent growth suppression of human HCT15 cells. It is filed as cell-based. The conditions noted are these: HCT-15.
The target in assay [5] is Cellular tumor antigen p53 (Homo sapiens) (UniProt P04637). The experiment in a line: Induction of wild type p53-dependent growth suppression of human RKO cells. Type of assay: cell-based.
Assay [6] can be described thus: (§1) Cytotoxicity against p53-deficient human LNZTA3 cells assessed as growth inhibition after 72 hrs by MTT assay. Type of assay: functional, cell-based. As to conditions: LNZTA3, 72 h. On the technique in general: Tetrazolium dyes change colour on reduction, which living cells bring about.
Assay [7] concerns the target Cellular tumor antigen p53 (Homo sapiens) (UniProt P04637). The experiment in a line: Induction of wild type p53-dependent growth suppression of human MCF7 cells. It is filed as cell-based.
For assay [8] the target is unchanged. Description: Induction of wild type p53-dependent growth suppression of human MKN45 cells. Type of assay: cell-based. The conditions noted are these: MKN-45.
Assay [9] shares this target. The experiment in a line: Induction of p53-dependent growth suppression of human LNZTA3 cells after 72 hrs by MTT assay. It is filed as cell-based.
Assay [10] deals with LNZTA3. The description is as §1. It is filed as functional, cell-based.
Assay [11] concerns LNZTA3. Description: Cytotoxicity against p53-deficient human LNZTA3 cells assessed as growth inhibition at >100 uM after 72 hrs by MTT assay. It is filed as functional, cell-based.

Sequence of Cellular tumor antigen p53 (Homo sapiens) (P04637 whole entry, looked up): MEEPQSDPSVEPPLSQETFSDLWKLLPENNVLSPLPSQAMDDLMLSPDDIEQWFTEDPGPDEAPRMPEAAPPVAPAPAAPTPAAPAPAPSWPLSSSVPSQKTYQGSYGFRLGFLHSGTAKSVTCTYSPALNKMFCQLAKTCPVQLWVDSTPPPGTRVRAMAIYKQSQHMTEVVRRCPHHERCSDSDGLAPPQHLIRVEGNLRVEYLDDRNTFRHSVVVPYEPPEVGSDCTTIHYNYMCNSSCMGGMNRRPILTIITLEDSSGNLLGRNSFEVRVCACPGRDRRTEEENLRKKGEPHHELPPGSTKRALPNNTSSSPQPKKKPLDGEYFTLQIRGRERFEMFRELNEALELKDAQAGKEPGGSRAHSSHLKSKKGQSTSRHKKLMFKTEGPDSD
Sequence of Cellular tumor antigen p53 (Homo sapiens), P04637 [UNDEFINED MUTATION] (P04637 whole entry, looked up, change not shown): as the sequence (P04637 whole entry, looked up) above

As for `CCCCC[C@H](O[C@@H]1O[C@@H]([C@H](O)CO)[C@H](O)[C@H]1OC(C)=O)c1c(O)cc2c(c1O)C(=O)c1c(O)cc(O)cc1C2=O`, the result in assay [1], in assay [2], in [3], in assay [4], in [5] and in assay [7] was Active. In addition, the result in assay [8] was Active. Besides, the IC50 in assay [6] was determined as 32 µM.
In the case of `CCCCC[C@H](O)c1c(O)cc2c(c1O)C(=O)c1c(O)cc(O)cc1C2=O`, the outcome in assay [9] was Active.
As for `O=C1c2cc(O[C@@H]3O[C@@H]([C@H](O)CO)[C@H](O)[C@H]3O)cc(O)c2C(=O)c2c1cc1c(c2O)[C@@H]2CCO[C@@H]2O1`, the result in assay [1], in assay [2], in assay [3], in [9], in [4] and in [5] was Active. For the same molecule, the outcome in [7] and in assay [8] was Active. Besides, the “growth inhibition (GI)” value with LNZTA3 [10] was “Active”.
As for `CCCCC[C@H](O[C@@H]1O[C@@H]([C@H](O)CO)[C@H](O)[C@H]1O)c1c(O)cc2c(c1O)C(=O)c1c(O)cc(O)cc1C2=O`, the result in assay [1], in assay [2], in assay [3], in assay [4], in assay [5] and in [7] was Active. Moreover, the result in [8] was Active. The IC50 in assay [6] is 32 µM.
As to `CC(=O)CCC[C@H](O[C@@H]1O[C@@H]([C@H](O)CO)[C@H](O)[C@H]1O)c1c(O)cc2c(c1O)C(=O)c1c(O)cc(O)cc1C2=O`, the “growth inhibition (GI)” value in the assay with LNZTA3 [11] is “inactive”. Further, the outcome in [1], in assay [2], in assay [3], in assay [9], in [4] and in [5] was Active. For the same molecule, the result in assay [7] and in assay [8] was Active.
As to `CCCCC[C@H](O)c1c(O[C@@H]2O[C@@H]([C@H](O)CO)[C@H](O)[C@H]2O)cc2c(c1O)C(=O)c1c(O)cc(O)cc1C2=O`, the outcome in [1], in assay [2], in assay [3], in assay [9], in assay [4] and in assay [5] was Active. In addition, the outcome in assay [7] and in [8] was Active. The “growth inhibition (GI)” value in the assay with LNZTA3 [10] is “Active”.

What is called IC50 is the concentration needed to halve the response being measured.
